SMILES strings stand for the structures.

In the data set the test system is BV2 microglial cells. Kind of data set: MTT assay for cytotoxicity toward BV2 microglial cells. Format: cell-based. The following applies: 24 hours. As to the method:
Cell viability was assessed using the 3-(4,5-dimethylthiazol-2-yl)-2,5-diphenyltetrazolium bromide (MTT) assay. […] The cells were then treated with 0.5 mg/ml MTT and incubated for 3 hours at 37° C. in a 5% CO2 incubator. Absorbance was read at 580 nm.
Background: Tetrazolium assays rely on reduction of a dye to a coloured formazan, in cell work by metabolically active cells.

In the case of `C=CC(=O)N1CCC[C@@H](n2nc(-c3ccc(Oc4ccccc4)cc3)c3c(N)ncnc32)C1` [ibrutinib], the “cytotoxicity in BV2 microglial cells” value by setting is: (50 μM) “cell death was detected”; (concentrations up to 25 μM) “did not induce cytotoxicity”.

For the origin of these results see US11826368B2 (DAEGU GYEONGBUK INSTITUTE OF SCIENCE AND TECHNOLOGY, priority 2018, dated 2023).
